The values below come from US11738019B2, “Substituted heterocycles as antiviral agents” (ENANTA PHARMACEUTICALS, INC., priority 2019, dated 2023).

The nature of data set [1]: compound induced cellular toxicity in HepG2 cells (ATPlite 1Step). The data set is classed as cell-based. Particulars: human, three days, concentration reducing total ATP levels by 50% relative to no drug controls. As for the experimental part: At day 3, post seeding cells are treated with ATPlite 1Step according to the manufacturer's instructions.
(In ATP-based viability assays light output follows the ATP content of the culture.)

The subject of data set [2] is HBV (2.2.15 cells). In words: HBV viral product reduction in 2.2.15 cells (qPCR / HBsAg or HBeAg ELISA). The data set is classed as cell-based. To be noted: Hepatitis B virus, 120 h, day 5 post treatment, concentration reducing viral product accumulation in cell lysates or supernatants by 50% relative to no drug controls. As for the experimental part:
2.2.15 cells are passaged upon attaining confluency in DMEM/F12 media in the presence of 10% FBS, Penn/Strep, and 250 ug/mL G418. Novel compounds are 5 fold serially diluted in DMSO and added to 96 well plates containing 35,000 cells/well at a 1:200 dilution so that the final concentration of DMSO is 0.5%. On day 5, post treatment cell lysates and supernatants are harvested for analysis.
Cells are lysed using Agilent Sidestep Lysis buffer, diluted 1:100 and quantified via quantitative real time PCR. Commercially available ELISA kits are used to quantitate the viral proteins HBsAg (Alpco) or HBeAg (US Biological) by following the manufacturer's recommended protocol after diluting samples to match the linear range of their respective assays. Irrespective of readout, compound concentrations that reduce viral product accumulation in the cell lysates or supernatants by 50% relative to no drug controls (EC50) are reported; EC50 ranges are as follows: A<0.1 μM; B 0.1-1 μM; C>1 μM.

As usually defined, the CC50 is the concentration at which the toxic effect on the cells reaches its halfway point. Read a high CC50 as better tolerance by the cells. For orientation: EC50 means the concentration at which the effect is half-maximal. A higher EC50 goes with weaker potency. On to `CC(C)(C)[C@@H]1Cc2c(cc(-c3cn[nH]c3)c3ccoc23)-c2cc(=O)c(C(=O)O)cn21` [Example 9, (S)-5-(tert-butyl)-9-oxo-12-(1H-pyrazol-4-yl)-4,9-dihydro-5H-furo[2,3-f]pyrido[2,1-a]isoquinoline-8-carboxylic acid], for which the half-maximal cytotoxic concentration (CC50) at 3 days in data set [1] was greater than 25 µM. Also, the EC50 in data set [2] is less than 0.1 µM.

On to `Cn1nccc1-c1cc2c(c3occc13)C[C@@H](C(C)(C)C)n1cc(C(=O)O)c(=O)cc1-2` [Example 14, (S)-5-(tert-butyl)-12-(1-methyl-1H-pyrazol-5-yl)-9-oxo-4,9-dihydro-5H-furo[2,3-f]pyrido[2,1-a]isoquinoline-8-carboxylic acid], for which, in data set [1], the CC50 at 3 days was greater than 25 µM. The same compound came in with an EC50 in data set [2] of less than 0.1 µM.

In data set [1], `Cn1ccc(-c2cc3c(c4occc24)C[C@@H](C(C)(C)C)n2cc(C(=O)O)c(=O)cc2-3)n1` [Example 16, (S)-5-(tert-butyl)-12-(1-methyl-1H-pyrazol-3-yl)-9-oxo-4,9-dihydro-5H-furo[2,3-f]pyrido[2,1-a]isoquinoline-8-carboxylic acid] displayed a CC50 at 3 days of 10 to 25 µM. For the same compound, in data set [2], the EC50 is less than 0.1 µM.

With `CC(C)(C)[C@@H]1Cc2c(cc(-c3ccco3)c3ccoc23)-c2cc(=O)c(C(=O)O)cn21` [Example 8, (S)-5-(tert-butyl)-12-(furan-2-yl)-9-oxo-4,9-dihydro-5H-furo[2,3-f]pyrido[2,1-a]isoquinoline-8-carboxylic acid], the CC50 at 3 days in data set [1] is greater than 25 µM. The compound further displayed an EC50 in data set [2] of less than 0.1 µM.
